PMC9005681, “Use of AD Informer Set compounds to explore validity of novel targets in Alzheimer's disease pathology” (Alzheimer's & Dementia : Translational Research & Clinical …, 2022)
Several values for one entry are separate records, joined by “and”; a condition that tells them apart may be missing. Equal values may be shown once.

Assays:
Experiment in all cases: PDSP GPCR panel primary binding assays at 10 μM
Conditions in all cases: primary assay
[1] = target: T1, cloned human or rodent CNS receptors, channels, and transporters (PDSP panel) (Homo sapiens, UniProt P28335)
T1 construct: expressed in transfected cells
T1 sequence (P28335 33-458): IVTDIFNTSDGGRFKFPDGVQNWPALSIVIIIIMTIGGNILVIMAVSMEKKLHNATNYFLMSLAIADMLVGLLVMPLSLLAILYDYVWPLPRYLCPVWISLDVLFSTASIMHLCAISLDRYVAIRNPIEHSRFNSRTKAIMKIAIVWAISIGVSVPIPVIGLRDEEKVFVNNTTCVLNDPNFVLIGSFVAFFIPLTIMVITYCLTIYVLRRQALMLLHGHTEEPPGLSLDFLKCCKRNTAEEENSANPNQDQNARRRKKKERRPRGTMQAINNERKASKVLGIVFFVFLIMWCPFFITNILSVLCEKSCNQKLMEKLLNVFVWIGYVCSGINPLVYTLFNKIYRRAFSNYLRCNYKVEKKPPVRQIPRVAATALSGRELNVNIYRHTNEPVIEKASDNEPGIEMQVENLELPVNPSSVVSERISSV
Outline: (§1)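 Competition binding with radiolabeled standard ligands, single 10 μM concentration, four replicates. Targets showing over 50% displacement were followed up with 11-point titrations in triplicate.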

[2] = target: T2, cloned human or rodent CNS receptors, channels, and transporters (PDSP panel) (Homo sapiens, UniProt Q01959)
T2 construct: expressed in transfected cells
Outline: as §1

[3] = target: T3, cloned human or rodent CNS receptors, channels, and transporters (PDSP panel) (Homo sapiens, UniProt P47898)
T3 construct: expressed in transfected cells
Outline: as §1

[4] = target: T4, cloned human or rodent CNS receptors, channels, and transporters (PDSP panel) (Homo sapiens, UniProt P34969)
T4 construct: expressed in transfected cells
Outline: as §1

[5] = target: T5, cloned human or rodent CNS receptors, channels, and transporters (PDSP panel) (Homo sapiens, UniProt P08172)
T5 construct: expressed in transfected cells
T5 sequence (P08172 1-466): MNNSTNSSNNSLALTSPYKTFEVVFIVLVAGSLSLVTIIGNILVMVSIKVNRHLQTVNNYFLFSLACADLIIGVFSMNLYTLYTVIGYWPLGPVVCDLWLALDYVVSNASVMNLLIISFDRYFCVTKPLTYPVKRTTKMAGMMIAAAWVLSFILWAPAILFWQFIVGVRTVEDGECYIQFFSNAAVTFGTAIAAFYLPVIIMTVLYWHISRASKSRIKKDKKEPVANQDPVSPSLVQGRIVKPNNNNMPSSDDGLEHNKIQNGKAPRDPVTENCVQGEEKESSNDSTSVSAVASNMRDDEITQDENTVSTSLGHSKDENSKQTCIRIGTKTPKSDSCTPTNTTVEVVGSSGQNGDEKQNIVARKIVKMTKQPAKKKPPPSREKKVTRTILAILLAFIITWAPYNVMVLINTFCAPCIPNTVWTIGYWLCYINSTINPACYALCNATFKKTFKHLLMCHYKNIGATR
Outline: as §1

[6] = target: T6, cloned human or rodent CNS receptors, channels, and transporters (PDSP panel) (Homo sapiens, UniProt P21728)
T6 construct: expressed in transfected cells
Outline: as §1

[7] = target: T7, cloned human or rodent CNS receptors, channels, and transporters (PDSP panel) (Homo sapiens, UniProt P41145)
T7 construct: expressed in transfected cells
Outline: as §1

[8] = target: T8, cloned human or rodent CNS receptors, channels, and transporters (PDSP panel) (Homo sapiens, UniProt P46098)
T8 construct: expressed in transfected cells
T8 sequence (P46098 24-478): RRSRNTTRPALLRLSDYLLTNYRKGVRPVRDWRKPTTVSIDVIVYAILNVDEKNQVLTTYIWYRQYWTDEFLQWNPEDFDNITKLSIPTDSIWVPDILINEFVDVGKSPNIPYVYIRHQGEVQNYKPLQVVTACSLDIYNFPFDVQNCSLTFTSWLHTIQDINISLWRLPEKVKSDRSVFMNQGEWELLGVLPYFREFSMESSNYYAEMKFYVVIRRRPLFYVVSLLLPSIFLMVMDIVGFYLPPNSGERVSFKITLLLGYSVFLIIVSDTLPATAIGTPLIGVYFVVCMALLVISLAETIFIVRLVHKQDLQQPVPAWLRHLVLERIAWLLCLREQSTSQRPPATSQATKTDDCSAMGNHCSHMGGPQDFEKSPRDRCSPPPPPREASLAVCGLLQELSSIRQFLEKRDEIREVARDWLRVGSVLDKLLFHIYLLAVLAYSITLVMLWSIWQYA
Outline: as §1

T6 sequence (P21728 whole entry): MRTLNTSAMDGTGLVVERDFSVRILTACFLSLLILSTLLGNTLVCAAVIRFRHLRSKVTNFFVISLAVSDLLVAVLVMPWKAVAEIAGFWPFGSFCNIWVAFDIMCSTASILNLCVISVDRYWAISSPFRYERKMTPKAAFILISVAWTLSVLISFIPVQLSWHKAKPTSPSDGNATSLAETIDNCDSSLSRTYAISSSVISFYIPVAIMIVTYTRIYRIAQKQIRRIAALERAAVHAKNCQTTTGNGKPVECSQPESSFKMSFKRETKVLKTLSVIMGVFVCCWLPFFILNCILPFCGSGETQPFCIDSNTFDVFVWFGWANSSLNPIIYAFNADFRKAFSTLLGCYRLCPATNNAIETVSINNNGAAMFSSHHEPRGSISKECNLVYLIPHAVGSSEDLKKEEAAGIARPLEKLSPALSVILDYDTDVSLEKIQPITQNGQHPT
T3 sequence (P47898 whole entry): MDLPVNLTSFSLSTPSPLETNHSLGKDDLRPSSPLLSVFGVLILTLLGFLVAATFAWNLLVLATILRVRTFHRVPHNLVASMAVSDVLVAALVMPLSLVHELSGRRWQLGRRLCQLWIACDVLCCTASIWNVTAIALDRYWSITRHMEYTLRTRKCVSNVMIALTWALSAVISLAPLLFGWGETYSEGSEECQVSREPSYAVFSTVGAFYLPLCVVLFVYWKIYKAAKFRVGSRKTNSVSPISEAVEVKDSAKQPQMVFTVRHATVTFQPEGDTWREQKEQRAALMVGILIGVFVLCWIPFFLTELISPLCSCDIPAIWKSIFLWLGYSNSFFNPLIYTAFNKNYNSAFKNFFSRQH
T4 sequence (P34969 whole entry): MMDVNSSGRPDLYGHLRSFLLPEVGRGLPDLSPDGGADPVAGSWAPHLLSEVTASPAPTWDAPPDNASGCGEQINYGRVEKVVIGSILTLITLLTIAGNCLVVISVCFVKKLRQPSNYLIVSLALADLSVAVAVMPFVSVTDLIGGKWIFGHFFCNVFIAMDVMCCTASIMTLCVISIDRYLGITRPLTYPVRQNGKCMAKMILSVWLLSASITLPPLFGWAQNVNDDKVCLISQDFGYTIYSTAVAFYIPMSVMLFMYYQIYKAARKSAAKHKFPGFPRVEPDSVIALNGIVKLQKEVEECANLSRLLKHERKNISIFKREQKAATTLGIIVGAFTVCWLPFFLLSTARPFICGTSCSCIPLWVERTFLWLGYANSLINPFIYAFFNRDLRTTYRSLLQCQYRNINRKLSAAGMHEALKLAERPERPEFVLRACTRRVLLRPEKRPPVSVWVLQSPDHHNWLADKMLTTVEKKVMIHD
T7 sequence (P41145 whole entry): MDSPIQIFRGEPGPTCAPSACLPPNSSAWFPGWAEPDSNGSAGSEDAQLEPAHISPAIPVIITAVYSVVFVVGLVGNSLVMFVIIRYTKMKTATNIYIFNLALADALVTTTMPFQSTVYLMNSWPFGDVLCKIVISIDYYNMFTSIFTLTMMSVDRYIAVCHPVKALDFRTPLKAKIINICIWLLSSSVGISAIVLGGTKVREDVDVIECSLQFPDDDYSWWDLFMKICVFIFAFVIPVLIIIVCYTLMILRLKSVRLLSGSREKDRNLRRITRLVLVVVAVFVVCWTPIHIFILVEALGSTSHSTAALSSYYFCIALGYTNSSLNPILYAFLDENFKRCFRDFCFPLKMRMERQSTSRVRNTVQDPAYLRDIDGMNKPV
T2 sequence (Q01959 whole entry): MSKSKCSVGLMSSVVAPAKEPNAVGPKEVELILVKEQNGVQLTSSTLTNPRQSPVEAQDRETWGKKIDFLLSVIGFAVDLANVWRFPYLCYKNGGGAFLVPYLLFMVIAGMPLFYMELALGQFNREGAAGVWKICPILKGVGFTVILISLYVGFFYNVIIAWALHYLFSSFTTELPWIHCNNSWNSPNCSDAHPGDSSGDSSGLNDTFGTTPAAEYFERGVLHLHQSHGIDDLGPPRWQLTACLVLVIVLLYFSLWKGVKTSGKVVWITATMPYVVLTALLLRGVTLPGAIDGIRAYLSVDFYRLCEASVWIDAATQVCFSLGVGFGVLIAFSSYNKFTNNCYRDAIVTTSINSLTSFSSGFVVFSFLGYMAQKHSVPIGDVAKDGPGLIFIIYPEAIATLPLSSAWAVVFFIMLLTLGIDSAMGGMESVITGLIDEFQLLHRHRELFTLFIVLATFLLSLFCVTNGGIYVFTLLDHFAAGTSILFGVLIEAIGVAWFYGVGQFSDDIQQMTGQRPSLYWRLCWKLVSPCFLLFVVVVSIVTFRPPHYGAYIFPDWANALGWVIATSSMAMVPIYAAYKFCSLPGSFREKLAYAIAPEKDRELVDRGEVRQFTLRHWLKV

CNc1nc(C)nc(N[C@H]2CCC[C@@H](C(=O)NCc3ccc(C#N)cc3C(F)(F)F)C2)n1 [UNC10302679A, GSK2256294A]
Mean % ([1]; 5-HT2C, mean inhibition): -14.6%
Inhibition 1 ([1]; 5-HT2C, replicate 1): 12.76%
Inhibition 2 ([1]; 5-HT2C, replicate 2): -11.29%
Inhibition 3 ([1]; 5-HT2C, replicate 3): -33.87%
Inhibition 4 ([1]; 5-HT2C, replicate 4): -26.01%
Mean % ([2]; DAT, mean inhibition): 54.13%
Inhibition 1 ([2]; DAT, replicate 1): 56.61%
Inhibition 2 ([2]; DAT, replicate 2): 53.37%
Inhibition 3 ([2]; DAT, replicate 3): 54.99%
Inhibition 4 ([2]; DAT, replicate 4): 51.53%
Mean % ([3]; 5-HT5A, mean inhibition): 0.62% and -5.72%
Inhibition 1 ([3]; 5-HT5A, replicate 1): 13.64% and 5.79%
Inhibition 2 ([3]; 5-HT5A, replicate 2): -10.06% and -11.12%
Inhibition 3 ([3]; 5-HT5A, replicate 3): -4.07% and -16.75%
Inhibition 4 ([3]; 5-HT5A, replicate 4): 2.96% and -0.78%
Mean % ([4]; 5-HT7A, mean inhibition): 35.21%
Inhibition 1 ([4]; 5-HT7A, replicate 1): 10.61%
Inhibition 2 ([4]; 5-HT7A, replicate 2): 51.06%
Inhibition 3 ([4]; 5-HT7A, replicate 3): 19.91%
Inhibition 4 ([4]; 5-HT7A, replicate 4): 59.27%
Mean % ([5]; M2, mean inhibition): -9.25%
Inhibition 1 ([5]; M2, replicate 1): -13.73%
Inhibition 2 ([5]; M2, replicate 2): -23.07%
Inhibition 3 ([5]; M2, replicate 3): -14.72%
Inhibition 4 ([5]; M2, replicate 4): 14.53%
Mean % ([6]; D1, mean inhibition): 9.96%
Inhibition 1 ([6]; D1, replicate 1): 12.39%
Inhibition 2 ([6]; D1, replicate 2): 11.9%
Inhibition 3 ([6]; D1, replicate 3): 10.77%
Inhibition 4 ([6]; D1, replicate 4): 4.78%
Mean % ([7]; KOR, mean inhibition): -10.86%
Inhibition 1 ([7]; KOR, replicate 1): -18.36%
Inhibition 2 ([7]; KOR, replicate 2): -17.69%
Inhibition 3 ([7]; KOR, replicate 3): 0.34%
Inhibition 4 ([7]; KOR, replicate 4): -7.72%
Mean % ([8]; 5-HT3, mean inhibition): 8.2%
Inhibition 1 ([8]; 5-HT3, replicate 1): 4.04%
Inhibition 2 ([8]; 5-HT3, replicate 2): 9.4%
Inhibition 3 ([8]; 5-HT3, replicate 3): -1.71%
Inhibition 4 ([8]; 5-HT3, replicate 4): 21.06%

CCC(=O)N1CCC(NC(=O)Nc2ccc(OC(F)(F)F)cc2)CC1 [UNC10302681A, TPPU]
Mean % ([1]; 5-HT2C, mean inhibition): -8.1%
Inhibition 1 ([1]; 5-HT2C, replicate 1): 3.44%
Inhibition 2 ([1]; 5-HT2C, replicate 2): -10.8%
Inhibition 3 ([1]; 5-HT2C, replicate 3): -1.96%
Inhibition 4 ([1]; 5-HT2C, replicate 4): -23.07%
Mean % ([2]; DAT, mean inhibition): 59.91%
Inhibition 1 ([2]; DAT, replicate 1): 71.52%
Inhibition 2 ([2]; DAT, replicate 2): 71.2%
Inhibition 3 ([2]; DAT, replicate 3): 51.64%
Inhibition 4 ([2]; DAT, replicate 4): 45.27%
Mean % ([3]; 5-HT5A, mean inhibition): -10.71% and -8.22%
Inhibition 1 ([3]; 5-HT5A, replicate 1): 25.37% and 9.24%
Inhibition 2 ([3]; 5-HT5A, replicate 2): -13.71% and -7.98%
Inhibition 3 ([3]; 5-HT5A, replicate 3): -53.57% and -12.99%
Inhibition 4 ([3]; 5-HT5A, replicate 4): -0.94% and -21.14%
Mean % ([4]; 5-HT7A, mean inhibition): 28.67%
Inhibition 1 ([4]; 5-HT7A, replicate 1): 34.17%
Inhibition 2 ([4]; 5-HT7A, replicate 2): 16.81%
Inhibition 3 ([4]; 5-HT7A, replicate 3): 23.63%
Inhibition 4 ([4]; 5-HT7A, replicate 4): 40.05%
Mean % ([5]; M2, mean inhibition): -13.3%
Inhibition 1 ([5]; M2, replicate 1): -14.72%
Inhibition 2 ([5]; M2, replicate 2): -20.61%
Inhibition 3 ([5]; M2, replicate 3): -11.27%
Inhibition 4 ([5]; M2, replicate 4): -6.61%
Mean % ([6]; D1, mean inhibition): -1.82%
Inhibition 1 ([6]; D1, replicate 1): -5.26%
Inhibition 2 ([6]; D1, replicate 2): -2.83%
Inhibition 3 ([6]; D1, replicate 3): -3.8%
Inhibition 4 ([6]; D1, replicate 4): 4.61%
Mean % ([7]; KOR, mean inhibition): -14.38%
Inhibition 1 ([7]; KOR, replicate 1): -11.64%
Inhibition 2 ([7]; KOR, replicate 2): -17.46%
Inhibition 3 ([7]; KOR, replicate 3): -11.75%
Inhibition 4 ([7]; KOR, replicate 4): -16.68%
Mean % ([8]; 5-HT3, mean inhibition): 17.23%
Inhibition 1 ([8]; 5-HT3, replicate 1): 6.76%
Inhibition 2 ([8]; 5-HT3, replicate 2): 16.16%
Inhibition 3 ([8]; 5-HT3, replicate 3): 12.2%
Inhibition 4 ([8]; 5-HT3, replicate 4): 33.8%

c1cn2cc(-c3ccc4cn[nH]c4c3)nc(Nc3ccc(N4CCOCC4)cc3)c2n1 [UNC10302678A, Entospletinib (GS-9973)]
Inhibition 1 ([1]; Receptor 5-HT2C, 10 μM): -15.71%
Inhibition 2 ([1]; Receptor 5-HT2C, 10 μM): 5.4%
Inhibition 3 ([1]; Receptor 5-HT2C, 10 μM): -17.18%
Inhibition 4 ([1]; Receptor 5-HT2C, 10 μM): -19.14%
Mean % ([1]; Receptor 5-HT2C, 10 μM, mean of Inhibition 1-4): -11.66%
Inhibition 1 ([2]; Receptor DAT, 10 μM): 27.87%
Inhibition 2 ([2]; Receptor DAT, 10 μM): 18.37%
Inhibition 3 ([2]; Receptor DAT, 10 μM): 25.5%
Inhibition 4 ([2]; Receptor DAT, 10 μM): 31.55%
Mean % ([2]; Receptor DAT, 10 μM, mean of Inhibition 1-4): 25.82%
Inhibition 1 ([3]; Receptor 5-HT5A, 10 μM): 7.17%
Inhibition 2 ([3]; Receptor 5-HT5A, 10 μM): -43.49%
Inhibition 3 ([3]; Receptor 5-HT5A, 10 μM): -3.12%
Inhibition 4 ([3]; Receptor 5-HT5A, 10 μM): -6.68%
Mean % ([3]; Receptor 5-HT5A, 10 μM, mean of Inhibition 1-4): -11.53%
Inhibition 1 ([4]; Receptor 5-HT7A, 10 μM): 7.05%
Inhibition 2 ([4]; Receptor 5-HT7A, 10 μM): 11.23%
Inhibition 3 ([4]; Receptor 5-HT7A, 10 μM): 9.37%
Inhibition 4 ([4]; Receptor 5-HT7A, 10 μM): 35.72%
Mean % ([4]; Receptor 5-HT7A, 10 μM, mean of Inhibition 1-4): 15.84%
Inhibition 1 ([5]; Receptor M2, 10 μM): -17.67%
Inhibition 2 ([5]; Receptor M2, 10 μM): -16.44%
Inhibition 3 ([5]; Receptor M2, 10 μM): -12.26%
Inhibition 4 ([5]; Receptor M2, 10 μM): -13.73%
Mean % ([5]; Receptor M2, 10 μM, mean of Inhibition 1-4): -15.03%
Inhibition 1 ([6]; Receptor D1, 10 μM): 2.51%
Inhibition 2 ([6]; Receptor D1, 10 μM): -3%
Inhibition 3 ([6]; Receptor D1, 10 μM): -32.95%
Inhibition 4 ([6]; Receptor D1, 10 μM): 7.37%
Mean % ([6]; Receptor D1, 10 μM, mean of Inhibition 1-4): -6.52%
Inhibition 1 ([7]; Receptor KOR, 10 μM): -28.1%
Inhibition 2 ([7]; Receptor KOR, 10 μM): -33.36%
Inhibition 3 ([7]; Receptor KOR, 10 μM): -49.37%
Inhibition 4 ([7]; Receptor KOR, 10 μM): -45.23%
Mean % ([7]; Receptor KOR, 10 μM, mean of Inhibition 1-4): -39.02%
Inhibition 1 ([8]; Receptor 5-HT3, 10 μM): 20.59%
Inhibition 2 ([8]; Receptor 5-HT3, 10 μM): 12.98%
Inhibition 3 ([8]; Receptor 5-HT3, 10 μM): 21.06%
Inhibition 4 ([8]; Receptor 5-HT3, 10 μM): 14.69%
Mean % ([8]; Receptor 5-HT3, 10 μM, mean of Inhibition 1-4): 17.33%
